PMC11079024, “Identification of a family of species-selective complex I inhibitors as potential anthelmintics” (Nature Communications, 2024)
Like-named read-outs stand apart in the source and are kept apart here.

Experiments:
in vitro = details: human
L1 wild-type C. elegans = details: for Screen "Hit": 50 μM
[1] = molecular target: C. elegans (N2) complex I (NADH:ubiquinone oxidoreductase) (Caenorhabditis elegans, UniProt P24887+Q93873+Q94360); assay: biochemical; format: biochemical; details: for activity at 0.0001 µM / activity at 0.0005 µM / activity at 0.001 µM / activity at 0.0025 µM / activity at 0.005 µM / activity at 0.013 µM / activity at 0.025 µM / activity at 0.063 µM / activity at 0.125 µM / activity at 0.313 µM / activity at 0.625 µM / activity at 1.5 µM / activity at 3 µM / activity at 15 µM / activity at 37.5 µM / activity at 75 µM: read-out: C. elegans mitochondrial complex I activity; for Log IC50 C. elegans complex I: log10 of IC50 in µM, C. elegans mitochondria
Procedure, shortened: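 Compounds were tested against freeze-thawed isolated mitochondria (0.2 mg/mL protein). NADH:decylubiquinone activity was monitored via DCIP absorbance at 600 nm, and the initial linear slope was normalised to solvent controls.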

[2] = HEK293 cells (Flp-In-293), HEK293 viability
[3] = Dose 0.2 µM, mean of at least three biological replicates
[4] = in vitro complex I dose response on C. elegans mitochondria, average of at least two biological replicates, fit in R (DRC), read-out: IC50 C. elegans complex I
[5] = wild-type C. elegans mitochondria, estimated from fitted dose-response curves, read-out: C. elegans Complex I IC50

C. elegans (N2) complex I (NADH:ubiquinone oxidoreductase), sequence (Q94360 17-199): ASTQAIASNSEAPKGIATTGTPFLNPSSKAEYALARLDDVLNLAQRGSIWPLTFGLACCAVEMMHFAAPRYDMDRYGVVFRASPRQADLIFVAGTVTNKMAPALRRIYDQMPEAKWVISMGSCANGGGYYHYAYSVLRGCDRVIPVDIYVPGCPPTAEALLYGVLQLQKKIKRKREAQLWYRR
C. elegans (N2) complex I (NADH:ubiquinone oxidoreductase), sequence (P24887 whole entry): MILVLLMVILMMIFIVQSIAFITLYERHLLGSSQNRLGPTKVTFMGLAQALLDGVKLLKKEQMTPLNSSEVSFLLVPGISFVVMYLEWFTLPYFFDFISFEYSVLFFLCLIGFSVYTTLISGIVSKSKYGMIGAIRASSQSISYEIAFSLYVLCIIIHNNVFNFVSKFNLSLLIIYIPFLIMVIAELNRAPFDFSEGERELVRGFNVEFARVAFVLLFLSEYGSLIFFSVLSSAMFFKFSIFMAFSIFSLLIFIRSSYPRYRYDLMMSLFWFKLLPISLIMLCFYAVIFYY
C. elegans (N2) complex I (NADH:ubiquinone oxidoreductase), sequence (Q93873 31-482): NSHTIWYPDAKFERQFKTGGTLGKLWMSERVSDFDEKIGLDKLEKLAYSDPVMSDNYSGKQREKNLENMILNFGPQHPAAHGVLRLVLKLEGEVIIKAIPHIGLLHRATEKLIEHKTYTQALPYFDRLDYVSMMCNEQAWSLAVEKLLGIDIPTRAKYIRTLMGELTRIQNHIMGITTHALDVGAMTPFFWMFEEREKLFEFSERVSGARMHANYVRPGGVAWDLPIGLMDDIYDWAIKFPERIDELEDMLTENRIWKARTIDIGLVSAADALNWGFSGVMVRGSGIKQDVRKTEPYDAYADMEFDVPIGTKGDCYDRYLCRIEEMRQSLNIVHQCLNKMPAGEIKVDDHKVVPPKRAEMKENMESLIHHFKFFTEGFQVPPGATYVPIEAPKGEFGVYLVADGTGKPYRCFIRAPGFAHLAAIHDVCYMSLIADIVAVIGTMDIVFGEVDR

Row | Compound | viability at 2 days, 3.13 µM (in vitro; [2]) [%] | viability at 2 days, 6.25 µM (in vitro; [2]) [%] | viability at 2 days, 12.5 µM (in vitro; [2]) [%] | viability at 2 days, 25 µM (in vitro; [2]) [%] | viability at 2 days, 100 µM (in vitro; [2]) [%] | C. elegans KCN Survival (L1 wild-type C. elegans; [3]) | C. elegans KCN Survival (L1 wild-type C. elegans; Dose 0.39 µM) | C. elegans KCN Survival (L1 wild-type C. elegans; Dose 1.56 µM) | C. elegans KCN Survival (L1 wild-type C. elegans; Dose 3.13 µM) | C. elegans KCN Survival (L1 wild-type C. elegans; Dose 6.25 µM) | C. elegans KCN Survival (L1 wild-type C. elegans; Dose 12.5 µM) | C. elegans KCN Survival (L1 wild-type C. elegans; Dose 25 µM) | C. elegans KCN Survival (L1 wild-type C. elegans; Dose 50 µM) | C. elegans KCN Survival (L1 wild-type C. elegans; Dose 100 µM) | activity at 0.0001 µM [1] [%] | activity at 0.0005 µM [1] [%] | activity at 0.001 µM [1] [%] | activity at 0.0025 µM [1] [%] | activity at 0.005 µM [1] [%] | activity at 0.013 µM [1] [%] | also measured
1 | CCCOc1ccc(Cn2cnc3ccccc32)cc1 [Compound 7355741] | 99.8 | 100 | 100 | 100 | 30.3 | 0.923 | 0.831 | 0.783 | 1.007 | 0.620 | 0.122 | 0.000 | 0.000 | 0.000 | 85.2 | 94.7 | 89.8 | 99 | 86.1 | 94.6 | CC50 at 2 days (in vitro; HEK293 Cell Viability Assay LC50, HEK293 cells, estimated from fitted dose-response curves, mean of at least two biological replicates): 76200 nM; viability at 2 days, 50 µM (in vitro; HEK293 cells (Flp-In-293), HEK293 viability, Dose 50 µM): 78.9%; Screen "Hit" (L1 wild-type C. elegans; KCN survival assay, hit = relative motility below 0.25): Y (hits were identified as compounds that reduced relative motility below 0.25 (75% reduction)); activity at 0.025 µM [1]: 90.6%; activity at 0.063 µM [1]: 82.3%; activity at 0.125 µM [1]: 77.2%; activity at 0.313 µM [1]: 62.4%; activity at 0.625 µM [1]: 47.9%; activity at 1.5 µM [1]: 31.8%; activity at 3 µM [1]: 15.1%; activity at 15 µM [1]: 3.6%; activity at 37.5 µM [1]: 5.38%; activity at 75 µM [1]: 7.89%; IC50 [1, 4]: 620 nM; Log IC50 C. elegans complex I [1]: -0.21 µM; IC50 ([1]; wild-type (N2) mitochondria, read-out: C. elegans Complex I IC50): 620 nM; IC50 [1, 5]: 620 nM
2 | Cc1ccc(OCCn2cnc3ccccc32)c(C)c1 [Compound 7706808] | 100 | 100 | 100 | 100 | 36.2 | 0.957 | 1.031 | 1.000 | 0.998 | 0.894 | 0.483 | 0.132 | 0.135 | 0.199 | 101 | 107 | 103 | 109 | 101 | 107 | CC50 at 2 days (in vitro): 89100 nM; viability (in vitro; HEK293 viability, Dose 50 µM): 94.6%; Screen "Hit" (L1 wild-type C. elegans; hit = relative motility below 0.25 3 hours after removal of KCN): Y (hits were identified as compounds that reduced relative motility below 0.25 (75% reduction)); activity at 0.025 µM [1]: 105%; activity at 0.063 µM [1]: 101%; activity at 0.125 µM [1]: 94.3%; activity at 0.313 µM [1]: 97.4%; activity at 0.625 µM [1]: 70.9%; activity at 1.5 µM [1]: 55.5%; activity at 3 µM [1]: 44.2%; activity at 15 µM [1]: 16.3%; activity at 37.5 µM [1]: 13.2%; activity at 75 µM [1]: 13.5%; IC50 [1, 4]: 1450 nM; Log IC50 C. elegans complex I [1]: 0.16 µM; IC50 [1, 5]: 1450 nM
